How the values were obtained:
SIVMAC239 [1] = assay: Sensitivity to RT inhibitors, TZM luciferase infection assay; format: cell-based, simian immunodeficiency virus; settings: TZM-bl indicator cells, FIG. 5A,B
HIV-1NL4-3 [2] = assay: as above; format: cell-based; settings: TZM-bl indicator cells, FIG. 5A,B
stHIV/KB9 [3] = assay: as above; format: cell-based, simian-tropic HIV-1; settings: TZM-bl indicator cells, FIG. 5A,B
SIVMAC239 [4] = assay: Protease inhibitor virus inhibition assay (infected HUT-R5 cells, readout on TZM-bl); format: cell-based, simian immunodeficiency virus; settings: infected HuT-CCR5 cells, FIG. 5C
HIV-1NL4-3 [5] = assay: as above; format: cell-based; settings: infected HuT-CCR5 cells, FIG. 5C
stHIV/KB9 [6] = assay: as above; format: cell-based, simian-tropic HIV-1; settings: infected HuT-CCR5 cells, FIG. 5C
[7] = target: rhesus macaque APOBEC3G (rhesus macaque); assay: cell-based or functional assay
[8] = target: HIV-1 capsid (CA) protein of the HIV-1NL4-3-based viruses (HIV/KB9/GFP, HIV(SVif)/KB9/GFP) (HIV-1 (NL4-3)) (UniProt P12493); assay: cell-based or functional assay

Chain of rhesus macaque APOBEC3G (rhesus macaque) (Q7YR24 whole entry): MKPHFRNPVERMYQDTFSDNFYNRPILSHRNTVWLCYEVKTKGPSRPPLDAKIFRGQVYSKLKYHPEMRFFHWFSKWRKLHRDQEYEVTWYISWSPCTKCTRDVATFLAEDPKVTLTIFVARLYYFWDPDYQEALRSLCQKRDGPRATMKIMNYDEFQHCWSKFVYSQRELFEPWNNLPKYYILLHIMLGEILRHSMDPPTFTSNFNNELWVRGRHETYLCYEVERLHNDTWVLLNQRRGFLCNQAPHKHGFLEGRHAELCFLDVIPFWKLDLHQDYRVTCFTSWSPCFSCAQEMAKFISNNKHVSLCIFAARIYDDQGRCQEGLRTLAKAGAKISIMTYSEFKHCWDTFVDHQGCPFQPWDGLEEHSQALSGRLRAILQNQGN

Cc1cn([C@H]2C[C@H](N=[N+]=[N-])[C@@H](CO)O2)c(=O)[nH]c1=O [AZT]
inhibition of infection (luciferase, percentage of uninhibited level), result in words (SIVMAC239 [1]): equally sensitive
inhibition of infection (luciferase, percentage of uninhibited level), result in words (HIV-1NL4-3 [2]): equally sensitive
inhibition of infection (luciferase, percentage of uninhibited level), result in words (stHIV/KB9 [3]): equally sensitive

CC(C)CN(C[C@@H](O)[C@H](Cc1ccccc1)NC(=O)O[C@H]1CCOC1)S(=O)(=O)c1ccc(N)cc1 [amprenavir]
inhibition of infectious virus generation, result in words (SIVMAC239 [4]): ineffective or poorly inhibitory
inhibition of infectious virus generation, result in words (HIV-1NL4-3 [5]): effective inhibitors
inhibition of infectious virus generation, result in words (stHIV/KB9 [6]): potently inhibited

Cc1ccnc2c1NC(=O)c1cccnc1N2C1CC1 [nevirapine]
inhibition of infection (luciferase, percentage of uninhibited level), result in words (SIVMAC239 [1]): ineffective or poorly inhibitory
inhibition of infection (luciferase, percentage of uninhibited level), result in words (HIV-1NL4-3 [2]): effective inhibitors
inhibition of infection (luciferase, percentage of uninhibited level), result in words (stHIV/KB9 [3]): potently inhibited

HIV-1 Vif protein of the HIV-1NL4-3-based viruses (HIV/KB9/GFP, B3HIV(SCA)/KB9/GFP) (from UniProt P12504 1-192)
single-cycle infectivity on CEMx174 cells of virus made in 293T cells with or without rhAPOBEC3G [7]: 30 fold

SIVMAC Vif protein (SIVMAC239) as expressed by HIV(SVif)/KB9/GFP and B3HIV(SCA,SVif)/KB9/GFP
fold decrease in single-cycle infectivity on CEMx174 cells of virus made in 293T cells with or without rhAPOBEC3G [7]: < 2 fold

rhesus macaque TRIM5α (from UniProt Q0PF16 1-497)
single-cycle infectivity (GFP-positive cells) in CEMx174 cells expressing rhTRIM5α against unmodified CEMx174 cells [8]: 30 fold
single-cycle infectivity (GFP-positive cells) in rhesus macaque 221 cells against unmodified CEMx174 cells [8]: 70 fold
